Measured values taken from patent publication US20040097594A1 (priority 1998, published 2004).
pIC50, pKi: −log10 of the molar value. Read-outs that look alike come from different tables or passages of the source.

Columns and labels:
HIV-1 protease = HIV-1 protease (Human immunodeficiency virus type 1 group M subtype B, UniProt P04585); test: biochemical
HIV-1 (strain IIIB) = test: microbe, parasite or virus in culture; assay type: cell-based; details: Human immunodeficiency virus 1, 120 h; MT4 cells infected with HIV-1 strain IIIB, 5 days; lower line of each compound's entry; read-out: IC50 (MT-4 cells)
[1] = HIV-1 protease, upper line of each compound's entry, read-out: Ki (enzyme)

| Compound | pKi (HIV-1 protease; [1]) | pIC50 (HIV-1 (strain IIIB)) | pKi (HIV-1 protease) |
| --- | --- | --- | --- |
| CON(C)C(=O)COc1cccc(S(=O)(=O)N(C[C@@H](O)[C@H](Cc2ccccc2)NC(=O)OC2CO[C@H]3OCC[C@@H]23)OC2CCCC2)c1 (stereo partly drawn) [Compound 137, (3R,3aS,6aR)hexahydrofuro[2,3-b]furan-3-yl N-((1S,2R)-1-benzyl-3-(cyclopentyloxy)[(3-2-[methoxy(methyl)amino]-2-oxoethoxyphenyl)sulfonyl]amino-2-hydroxypropyl)carbamate] | > 9.00 | ≥ 7.00 |  |
| COC(=O)NCCNc1cccc(S(=O)(=O)N(CC(O)C(Cc2ccccc2)NC(=O)OC2COC3OCCC23)OC2CCCC2)c1 (mixture of isomers) [Compound 124, (3R,3aS,6aR)hexahydrofuro[2,3-b]furan-3-yl N-[(1S,2R)-1-benzyl-3-((cyclopentyloxy)[3-(2-[(methoxycarbonyl)amino]ethylamino)phenyl]sulfonylamino)-2-hydroxypropyl]carbamate and (3S,3aR,6aS)hexahydrofuro[2,3-b]furan-3-yl N-[(1S,2R)-1-benzyl-3-((cyclopentyloxy)[3-(2-[(methoxycarbonyl)amino]ethylamino)phenyl]sulfonylamino)-2-hydroxypropyl)carbamate] | > 9.00 | ≥ 7.00 |  |
| Nc1cccc(S(=O)(=O)N(C[C@@H](O)[C@H](Cc2ccccc2)NC(=O)O[C@H]2CCOC2)OC2CCCC2)c1 [Compound 27, (3S)tetrahydro-3-furanyl N-(1S,2R)-3-[[(3-aminophenyl)sulfonyl](cyclopentyloxy)amino]-1-benzyl-2-hydroxypropylcarbamate] | > 9.00 | 6.00 to 6.30 |  |
| COc1ccc(S(=O)(=O)N(C[C@@H](O)[C@H](Cc2ccccc2)NC(=O)O[C@H]2CCOC2)OC2CCCC2)cc1 [Compound 47, (3S)tetrahydro-3-furanyl N-((1S,2R)-1-benzyl-3-(cyclopentyloxy)[(4-methoxyphenyl)sulfonyl]amino-2-hydroxypropyl)carbamate] | > 9.00 | 6.00 to 6.30 |  |
| CN(C(=O)OC(C)(C)C)c1cccc(S(=O)(=O)N(C[C@@H](O)[C@H](Cc2ccccc2)NC(=O)O[C@H]2CO[C@H]3OCC[C@H]32)OC2CCCC2)c1 [Compound 128] | < 7.00 | < 6.00 |  |
| CNc1cccc(S(=O)(=O)N(C[C@@H](O)[C@H](Cc2ccccc2)NC(=O)O[C@H]2CO[C@H]3OCC[C@H]32)OC(C)C)c1 [Compound 127] | > 9.00 | ≥ 7.00 |  |
| O=C(N[C@@H](Cc1ccccc1)[C@H](O)CN(OC1CCCC1)S(=O)(=O)c1ccc2nccnc2c1)O[C@H]1CO[C@H]2OCC[C@H]21 [Compound 90] | > 9.00 | ≥ 7.00 |  |
| Nc1cccc(S(=O)(=O)N(C[C@@H](OP(=O)(O)O)[C@H](Cc2ccccc2)NC(=O)O[C@H]2CO[C@H]3OCC[C@H]32)OC2CCCC2)c1 [Compound 100, Phosphate ester of (3R,3aS,6aR)hexahydrofuro[2,3-b]furan-3-yl N-(1S,2R)-3-[[(3-aminophenyl)sulfonyl](cyclopentyloxy)amino]-1-benzyl-2-hydroxypropylcarbamate] | 7.00 to 8.00 | 6.30 to 7.00 |  |
| Nc1ccc(S(=O)(=O)N(CC(O)C(Cc2ccccc2)NC(=O)OC2COC3OCCC23)OC2CCCC2)cc1 [Example 171, (3R,3aS,6aR)hexahydrofuro[2,3-b]furan-3-yl N-(1S,2R)-3-[[(4-aminophenyl)sulfonyl](cyclopentyloxy)amino]-1-benzyl-2-hydroxypropyl carbamate] | > 9.00 | ≥ 7.00 |  |
| CC(C)ON(C[C@@H](O)[C@H](Cc1ccccc1)NC(=O)OC(C)(C)C)S(=O)(=O)c1ccc2[nH]c(=O)[nH]c2c1 [Compound 4] | 7.00 to 8.00 | < 6.00 |  |
| NC(=O)C[C@H](NC(=O)c1ccc2ccccc2n1)C(=O)N[C@@H](Cc1ccccc1)[C@H](O)CN(OC1CCCC1)S(=O)(=O)c1ccc2cn[nH]c2c1 [Compound 52] | > 9.00 | ≥ 7.00 |  |
| COc1cccc(S(=O)(=O)N(C[C@@H](O)[C@H](Cc2ccccc2)NC(=O)O[C@H]2CO[C@H]3OCC[C@H]32)OC2CCCC2)c1 [Compound 123, (3R,3aS,6aR)hexahydrofuro[2,3-b]furan-3-yl N-[(1S,2R)-1-benzyl-3-((cyclopentyloxy)[(3-methoxyphenyl)sulfonyl]amino)-2-hydroxypropyl]carbamate] | > 9.00 | ≥ 7.00 |  |
| COc1ccc(S(=O)(=O)N(C[C@@H](O)[C@H](Cc2ccccc2)NC(=O)OC2COCOC2)OC2CCCC2)cc1 [Compound 48, 1,3-dioxan-5-yl N-((1S,2R)-1-benzyl-3-(cyclopentyloxy)[(4-methoxyphenyl)sulfonyl]amino-2-hydroxypropyl)carbamate] | > 9.00 | 6.30 to 7.00 |  |
| O=C(N[C@@H](Cc1ccccc1)[C@H](O)CN(OC1CCCCC1)S(=O)(=O)c1ccc2c(c1)OCCO2)O[C@H]1CO[C@H]2OCC[C@H]21 [Compound 156, (3R,3aS,6aR)hexahydrofuro[2,3-b]furan-3-yl(1S,2R)-1-benzyl-3-[(cyclohexyloxy)(2,3-dihydro-1,4-benzodioxin-6-ylsulfonyl)amino]-2-hydroxypropylcarbamate] | > 9.00 | ≥ 7.00 |  |
| COc1ccc(S(=O)(=O)N(C[C@@H](O)[C@H](Cc2ccccc2)NC(=O)O[C@H]2CCOC2)OC2CCOCC2)cc1 [Compound 72, (3S)tetrahydro-3-furanyl N-(1S,2R)-1-benzyl-2-hydroxy-3-[[(4-methoxyphenyl)sulfonyl](tetrahydro-2H-pyran-4-yloxy)amino]propylcarbamate] | 8.00 to 9.00 | 6.00 to 6.30 |  |
| COc1ccc(S(=O)(=O)N(C[C@@H](O)[C@H](Cc2ccccc2)NC(=O)OC(C)(C)C)OC2CCCCC2)cc1 [Compound 23, tert-butyl N-((1S,2R)-1-benzyl-3-(cyclohexyloxy)[(4-methoxyphenyl)sulfonyl]amino-2-hydroxypropyl)carbamate] |  | < 6.00 | 8.00 to 9.00 |
| CC(C)ON(C[C@@H](O)[C@H](Cc1ccccc1)NC(=O)O[C@H]1CO[C@H]2OCC[C@H]21)S(=O)(=O)c1cccc(N)c1 [Compound 38] | > 9.00 | ≥ 7.00 |  |
| CC(C)ON(C[C@@H](O)[C@H](Cc1ccccc1)NC(=O)OC(C)(C)C)S(=O)(=O)c1ccc2[nH]cnc2c1 [Compound 3] | 7.00 to 8.00 | < 6.00 |  |
| O=C(N[C@@H](Cc1ccccc1)[C@H](O)CN(OC1CCCC1)S(=O)(=O)c1ccc2[nH]ncc2c1)O[C@H]1CCOC1 [Compound 56, (3S)Tetrahydro-3-furanyl N-(1S,2R)-1-benzyl-3-[(cyclopentyloxy)(1H-indazol-5-ylsulfonyl)amino]-2-hydroxypropylcarbamate] | > 9.00 | 6.30 to 7.00 |  |
| CS(=O)(=O)Nc1nc2cc(S(=O)(=O)N(C[C@@H](O)[C@H](Cc3ccccc3)NC(=O)O[C@H]3CO[C@H]4OCC[C@H]43)OC3CCCC3)ccc2[nH]1 [Compound 40, (3R,3aS,6aR)Hexahydrofuro[2,3-b]furan-3-yl-N-((1S,2R)-1-benzyl-3-(cyclopentyloxy)(2-[(methylsulfonyl)amino]benzimidazol-5-ylsulfonyl)amino-2-hydroxypropyl)carbamate] | > 9.00 | ≥ 7.00 |  |
